Data as given in patent publication US20250230151A1, “COMPOUNDS FOR CANCERS DRIVEN BY BRAF MUTATION” (THE BOARD OF TRUSTEES OF THE UNIVERSITY OF ILLINOIS, priority 2021, published 2025).

Assays:
HCT116 cells = experiment: 72-hour cell viability assay (Alamar Blue), HCT116; format: cell-based; settings: Homo sapiens, HCT-116, WT BRAF, colon, read-out: HCT116 (WT) IC50
Experimental: (§1) Cell Culture and reagents. All cell lines were grown in a 37° C., 5% CO2, humidified environment, in media containing 1% penicillin/streptomycin. Cell culture conditions are as follows: MDCK cells transfected with MDR1 (or ABCB1) were obtained from the Netherlands Cancer Institute (Amsterdam, The Netherlands) and maintained in DMEM with 10% fetal bovine serum (FBS, Gemini). Traditional cell lines A375, CHL-1, B16F10, and U118MG were grown in DMEM with 10% FBS, SK-MEL-28, U87 and T98G in EMEM with 10% FBS, AM-38 in EMEM with 20% HI-FBS (Gibco), HT29 in McCoy's 5A with 10% FBS, HCT116 in RPMI with 10% FBS. Compounds were dissolved in DMSO (1% final concentration, Sigma-Aldrich) for cell culture studies.
(§2) Cell viability assays. Cells were harvested, seeded in a 96-well plate and allowed to adhere overnight. Compound was added to each well in DMSO (1% final concentration). Cells were incubated for 72 hours before viability was assessed by the Alamar Blue Assay. Raptinal ([…]) was used as a dead control.

A375 cells = experiment: 72-hour cell viability assay (Alamar Blue), A375; format: cell-based, human; settings: for IC50: 72-hour incubation, Alamar Blue, V600E BRAF; for Emax: A-375, A375, 72-hour incubation
Experimental: as §1, §2

SK-MEL-28 cells = experiment: 72-hour cell viability assay (Alamar Blue), SK-MEL-28; format: cell-based; settings: Homo sapiens, SK-MEL-28, V600E BRAF, melanoma
Experimental: as §1, §2

[1] = Blood-brain barrier penetrance, brain and serum levels after single IV injection; format: in vivo; settings: CD-1, mouse, 60 min after single 25 mg/kg IV injection, read-out: brain-to-serum ratio
Experimental: Blood-brain barrier penetrance P-gp in vivo assays. All experimental procedures were reviewed and approved by the University of Illinois Institutional Animal Care and Use Committee (Protocol number: 19191). CD-1 mice were purchased from Charles River and acclimated for 4-7 days before use. Mice were administered elacridar or its vehicle at 2.5 mg/kg via lateral tail vein injection. Thirty-minutes post injection, mice were then treated with compounds at 25 mg/kg intravenously now in the other tail vein. At each time point, mice were sacrificed and blood was collected by lacerating the right auricle with iris scissors. An 18-gauge angiocatheter was inserted through the left ventricle, and all residual circulatory volume was removed by perfusing 0.9% saline solution via an analog peristaltic pump. Brains were harvested from the cranial vault and flash frozen. Blood samples were centrifuged at 13,000 ref for 10 minutes and the supernatant serum was stored at −80° C. until analysis. Brain samples were homogenized in ice-cold methanol and centrifuged first at 2000 ref for three minutes and then 13,000 ref for ten minutes and supernatant and tissue debris were separated and stored at −80° C. The resultant supernatant and serum were analyzed by LC-MS/MS to determine compound concentrations. […] All compounds were administered at 5 mL/kg.

P-gp = molecular target: T1, P-gp (Homo sapiens, UniProt P08183); experiment: MDR1-MDCK P-gp transwell bidirectional transport assay; format: in vitro ADME; settings: 10 μM, 90 min; for Papp A→B at 90 min, 10 µM / Papp B→A at 90 min, 10 µM / efflux ratio at 90 min, 10 µM: dog, MDCK-MDR1, MDR1-MDCK; for efflux ratio at 90 min, 10 µM: read-out: ER (efflux ratio) (converted)
T1 construct: host or cells: MDCK (MDR1-MDCK)
Experimental: A novel compound collection composed of complex and diverse compounds derived from natural products, termed “Complexity-to-Diversity Collection” was employed. […] The CtD compounds were evaluated by the efflux pump and their permeability using the P-gp transwell assay using adapted and optimized known protocols. Compound transport across epithelial cells overexpressing P-gp from basolateral-to-apical and apical-to-basolateral directions were quantified to calculate permeability and efflux ratio.
P-gp transwell bidirectional transport assays. Unless noted otherwise, the transport assay was performed in triplicate in batches of 16 or 24 test compounds, with each batch containing quinidine as a substrate control and propranolol as a non-substrate control. MDR1-MDCK cells were plated at a density of 300,000 cells/cm^2 onto 96-well Falcon™ Multiwell Insert System with 1 µm pore polycarbonate filters with angled-bottom receiver plates (Coming) and were fed with the cell growth medium on day 2.
The donor solution was prepared by adding 1 mM DMSO stocks of compounds to make the final concentration […], and the receiver solution was prepared with equivalent volume of DMSO to make 1% DMSO in final assay chamber volumes.
After 80-96 hours since seeding, the growth media on both sides was aspirated. To the transwell plate (apical side), 50 μL of receiver and donor solutions prepared on a 96-well plate were added, and it was placed on top of a separate angled-bottom 96-well plate (basolateral side) containing 260 μL of receiver and donor solutions.
Following 90 minutes of incubation at 37° C. with shaking at 90 rpm, 20 μL aliquot of samples were taken from both the donor and receiver chambers, and the apical and basolateral sides. Aliquots of 4 test compounds were pooled for each category: apical-donor, apical-receiver, basolateral-donor, basolateral-receiver. To measure CO and mass balance, initial donor samples from both apical and basolateral side were set aside from the assay plate. Acetonitrile twice the volume of pooled samples was added and mixed thoroughly, and precipitated proteins were removed by centrifugation at 20,000 r.c.f for 10 minutes.
To ascertain the MDCK monolayer integrity, the solution on apical side contained 100 µM Lucifer Yellow (Millipore-Sigma). After 90 minutes of compound transport, Lucifer Yellow concentration in the basal well was measured using SpectraMax M3 (Molecular Devices) set to an excitation wavelength of 430 nm and an emission wavelength of 540 nm.
Samples were analyzed with the 5500 QTRAP LC/MS/MS system (AB Sciex) with a 1200 series HPLC system (Agilent Technologies) including a degasser, an autosampler, and a binary pump. The liquid chromatography separation was performed on an Agilent SB-Aq column (4.6×50 mm, 5 μm) (Agilent Technologies) with mobile phase A (0.1% formic acid in water) and mobile phase B (0.1% formic acid in acetonitrile). The flow rate was 0.3 ml min^−1. The linear gradient was optimized for each compound. The autosampler was set at 5° C. The injection volume was 15 μL. Mass spectra were acquired with both positive electrospray ionization at the ion spray voltage of 5,500 V and negative electrospray ionization at the ion spray voltage of −4,500 V. The source temperature was 450° C. The curtain gas, ion source gas 1, and ion source gas 2 were 33, 50 and 65, respectively. Multiple reaction monitoring was used to quantify metabolites.
Efflux data calculations.

[2] = tested on: MAPK signaling (phospho-MEK1/2, phospho-ERK1/2) in A375 cells; experiment: Immunoblotting of MEK1/2 and ERK1/2 phosphorylation, A375; format: cell-based, human; settings: A375, highest concentrations (10 μM), 24 h
Experimental: Immunoblotting. Cells were lysed using RIPA buffer containing phosphatase (BioVision) and protease inhibitor cocktail (Calbiochem). Protein concentration was determined using the BCA assay (Pierce). Cell lysates containing […] of protein were loaded into each lane of 4% to 20% gradient gels (Bio-Rad) for SDS-PAGE. Proteins were transferred onto PDVF membrane for Western blot analysis. Blots were blocked with BSA for one hour followed by incubation with primary antibody overnight (dilution according to manufacturer's protocols), and then secondary antibody was incubated for one hour. Blots were then imaged with a ChemiDoc Touch (Bio-Rad) after incubation with SuperSignal West Pico Solution (ThermoFischer) following manufacturer's protocols. All antibodies were purchased from Cell Signaling Technology: p-ERK (9101S), ERK (4695S), p-MEK (9121S), MEK (8727S), vinculin (13901S) Rabbit IgG-HRP (7074), […] (5125).

T1 sequence (P08183 whole entry): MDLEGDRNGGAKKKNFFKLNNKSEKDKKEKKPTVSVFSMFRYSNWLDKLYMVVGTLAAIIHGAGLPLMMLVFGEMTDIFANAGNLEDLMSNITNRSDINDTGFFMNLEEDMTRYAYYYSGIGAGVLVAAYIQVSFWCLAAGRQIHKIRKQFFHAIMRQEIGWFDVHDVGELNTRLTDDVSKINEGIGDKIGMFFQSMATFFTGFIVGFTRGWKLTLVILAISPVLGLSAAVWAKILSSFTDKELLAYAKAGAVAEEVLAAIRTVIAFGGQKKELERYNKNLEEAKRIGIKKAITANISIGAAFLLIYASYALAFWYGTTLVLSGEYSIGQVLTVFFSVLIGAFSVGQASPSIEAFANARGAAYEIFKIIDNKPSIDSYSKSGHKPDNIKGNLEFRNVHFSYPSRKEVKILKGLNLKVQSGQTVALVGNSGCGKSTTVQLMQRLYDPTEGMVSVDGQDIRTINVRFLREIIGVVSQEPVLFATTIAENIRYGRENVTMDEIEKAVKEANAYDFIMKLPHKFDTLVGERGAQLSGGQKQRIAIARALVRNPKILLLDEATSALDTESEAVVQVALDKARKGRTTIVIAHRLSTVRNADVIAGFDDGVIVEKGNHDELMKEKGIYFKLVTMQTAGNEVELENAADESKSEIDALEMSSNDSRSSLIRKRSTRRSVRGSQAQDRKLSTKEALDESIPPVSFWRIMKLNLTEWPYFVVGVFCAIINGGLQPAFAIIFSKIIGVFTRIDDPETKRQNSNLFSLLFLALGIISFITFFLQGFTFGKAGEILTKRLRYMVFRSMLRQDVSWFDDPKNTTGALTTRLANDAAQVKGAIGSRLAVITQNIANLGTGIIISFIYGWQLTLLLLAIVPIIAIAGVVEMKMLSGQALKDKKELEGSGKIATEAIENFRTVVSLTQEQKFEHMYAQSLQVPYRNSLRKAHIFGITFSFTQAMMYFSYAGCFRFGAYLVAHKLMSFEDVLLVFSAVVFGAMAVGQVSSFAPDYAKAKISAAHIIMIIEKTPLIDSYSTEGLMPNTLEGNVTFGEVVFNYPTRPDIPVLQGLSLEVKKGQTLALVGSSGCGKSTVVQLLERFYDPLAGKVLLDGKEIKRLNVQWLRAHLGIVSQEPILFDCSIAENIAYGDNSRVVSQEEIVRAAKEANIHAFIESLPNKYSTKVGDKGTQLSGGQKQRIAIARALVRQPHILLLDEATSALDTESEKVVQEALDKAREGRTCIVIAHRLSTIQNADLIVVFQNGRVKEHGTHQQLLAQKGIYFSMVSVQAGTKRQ

| Compound | IC50 (HCT116 cells) [nM] | IC50 (A375 cells; Homo sapiens, A-375, 72 h) [nM] | IC50 (SK-MEL-28 cells) [nM] | Papp A→B at 90 min, 10 µM (P-gp) [×10⁻⁶ cm/s] | Papp B→A at 90 min, 10 µM (P-gp) [×10⁻⁶ cm/s] | other results |
| --- | --- | --- | --- | --- | --- | --- |
| COC(=O)N[C@@H](C)CNc1nccc(-c2cn(C(C)C)nc2-c2cc(Cl)cc(NS(C)(=O)=O)c2F)n1 [Encorafenib, reference compound] | – | 5.17 ± 0.412 | – | 1.32 ± 0.602 | 14.7 ± 1.8 | Kp at 60 min [1]: 0.0014 to 0.0069; ER (efflux ratio) (P-gp; MDR1-MDCK): 21.8 |
| CCCS(=O)(=O)Nc1ccc(F)c(C(=O)c2c[nH]c3ncc(Cl)cc23)c1F [PLX4720, reference compound] | – | – | – | – | – | inhibition of ERK1/2 phosphorylation after 24 h [2]: diminished inhibition; Kp at 60 min [1]: 0.0014 to 0.0069 |
| CCCS(=O)(=O)Nc1cc(Cl)cc(-c2nc(C(C)(C)C)sc2-c2ccnc(NCC(C)CC(=O)O)n2)c1F (stereo not drawn) [6-265, 4-((4-(2-(tert-butyl)-4-(5-chloro-2-fluoro-3-(propylsulfonamido)phenyl)thiazol-5-yl)pyrimidin-2-yl)amino)-3-methylbutanoic acid] | 8840 | 113 ± 10.7 | 124 ± 4.86 | – | – | – |
| CC(C)(C)c1nc(-c2cccc(NS(=O)(=O)c3c(F)cccc3F)c2F)c(-c2ccnc(NCCCCC(=O)O)n2)s1 [6-83, 5-((4-(2-(tert-butyl)-4-(3-((2,6-difluorophenyl)sulfonamido)-2-fluorophenyl)thiazol-5-yl)pyrimidin-2-yl)amino)pentanoic acid] | – | 115 | – | 1.09 ± 0.097 | 2.17 ± 0.371 | Papp A-B (P-gp; MDR1-MDCK): 1.089 ± 0.097 ×10⁻⁶ cm/s; Papp B-A (P-gp; MDR1-MDCK): 2.165 ± 0.371 ×10⁻⁶ cm/s; efflux ratio at 90 min, 10 µM (P-gp): 1.96 ± 0.22; IC50 (A375 cells): 115 ± 9.85 nM; Emax (A375 cells; Homo sapiens): 65% |
| CC(C)(C)c1nc(-c2c(F)ccc(NS(=O)(=O)c3ccc(F)cc3C(F)(F)F)c2F)c(-c2ccnc(NCCCCC(=O)O)n2)s1 [6-179, 5-((4-(2-(tert-butyl)-4-(2,6-difluoro-3-((4-fluoro-2-(trifluoromethyl)phenyl)sulfonamido)phenyl)thiazol-5-yl)pyrimidin-2-yl)amino)pentanoic acid] | – | 14700 ± 6160 | – | – | 1.79 ± 0.064 | – |
| CC(C)(C)c1nc(-c2cccc(NS(=O)(=O)c3c(F)cccc3F)c2F)c(-c2ccnc(NCCCCc3nnn[nH]3)n2)s1 [6-121, N-(3-(5-(2-((4-(1H-tetrazol-5-yl)butyl)amino)pyrimidin-4-yl)-2-(tert-butyl)thiazol-4-yl)-2-fluorophenyl)-2,6-difluorobenzenesulfonamide] | – | 1270 ± 54.4 | – | – | 0.325 ± 0.124 | Emax (A375 cells; Homo sapiens): 60% |
| CC(C)(C)c1nc(-c2cccc(NS(=O)(=O)c3c(F)cccc3F)c2F)c(-c2ccnc(N[C@H]3CC[C@@H](C(=O)O)CC3)n2)s1 [6-85, (1s,4s)-4-((4-(2-(tert-butyl)-4-(3-((2,6-difluorophenyl)sulfonamido)-2-fluorophenyl)thiazol-5-yl)pyrimidin-2-yl)amino)cyclohexane-1-carboxylic acid] | – | 474 ± 11.8 | – | 0.709 ± 0.045 | 2.26 ± 0.32 | efflux ratio at 90 min, 10 µM (P-gp): 3.22 ± 0.54 |

Now from value to compound, other results behind:

| IC50 (HCT116 cells) [nM] | IC50 (A375 cells; Homo sapiens, A-375, 72 h) [nM] | IC50 (SK-MEL-28 cells) [nM] | Papp A→B at 90 min, 10 µM (P-gp) [×10⁻⁶ cm/s] | Papp B→A at 90 min, 10 µM (P-gp) [×10⁻⁶ cm/s] | Compound | other results |
| --- | --- | --- | --- | --- | --- | --- |
| 5130 ± 382 | 38.2 ± 3.29 | 51.1 ± 1.35 | – | – | CCCS(=O)(=O)Nc1cc(Cl)cc(-c2nc(C(C)(C)C)sc2-c2ccnc(NCC[C@@H](C)CC(=O)O)n2)c1F [8-43, (R)-5-((4-(2-(tert-butyl)-4-(5-chloro-2-fluoro-3-(propylsulfonamido)phenyl)thiazol-5-yl)pyrimidin-2-yl)amino)-3-methylpentanoic acid] | – |
| > 1000 | 301 ± 39.9 | 246 ± 8.73 | – | – | CCCS(=O)(=O)Nc1cc(Cl)cc(-c2nc(C(C)(C)C)sc2-c2ccnc(NCC(C)C(F)C(=O)O)n2)c1F (stereo not drawn) [8-41, 4-((4-(2-(tert-butyl)-4-(5-chloro-2-fluoro-3-(propylsulfonamido)phenyl)thiazol-5-yl)pyrimidin-2-yl)amino)-2-fluoro-3-methylbutanoic acid] | – |
